Reference: patent US7205327B2, “Imidazole and benzimidazole caspase inhibitors and uses thereof” (Vertex Pharmaceuticals Incorporated, priority 2000, dated 2007)
Where a name gives a salt, the structure may show the parent alone.

Tested on: FAS induced apoptosis
Experiment: Anti-fas induced apoptosis assay
Assay type: cell-based
Description: Anti-fas Induced Apoptosis Assay
Cellular apoptosis may be induced by the binding of Fas ligand (FasL) to its receptor, CD95 (Fas). Conditions for an assay to measure the effect of compounds on the inhibition of the caspase-8-mediated apoptotic pathway may be found in WO0142216.

| SMILES | IC50 [nM] |
| --- | --- |
| C[C@H](NC(=O)c1ncc[nH]1)C(=O)NC(CC(=O)O)C(=O)CF (stereo partly drawn) [Compound 1, [3S/R,(2S)]-5-Fluoro-3-{2-[(1H-imidazole-2-carbonyl)-amino]-propionylamino}-4-oxo-pentanoic acid, trifluoroacetate salt] | < 200 |
| C[C@H](NC(=O)c1nc2ccccc2[nH]1)C(=O)NC(CC(=O)O)C(=O)CF (stereo partly drawn) [Compound 2, [3S/R, (2S)]-3-{2-[(1H-Benzoimidazole-2-carbonyl)-amino]-propionylamino}-5-fluoro-4-oxo-pentanoic acid, trifluoroacetate salt] | < 200 |
| CC[C@H](NC(=O)c1ncc[nH]1)C(=O)NC(CC(=O)O)C(=O)CF (stereo partly drawn) [Compound 3, [3S/R,(2S)]-5-Fluoro-3-{2-[(1H-imidazole-2-carbonyl)-amino]-butyrylamino}-4-oxo-pentanoic acid, trifluoroacetate salt] | < 200 |
| CC(C)[C@H](NC(=O)c1ncc[nH]1)C(=O)NC(CC(=O)O)C(=O)CF (stereo partly drawn) [Compound 4, [3S/R,(2S)]-5-Fluoro-3-{2-[(1H-imidazole-2-carbonyl)-amino]-3-methylbutyrylamino}-4-oxo-pentanoic acid] | < 200 |
| CC(C)[C@H](NC(=O)c1nc2ccccc2[nH]1)C(=O)NC(CC(=O)O)C(=O)CF (stereo partly drawn) [Compound 5, [3S/R, (2S)]-3-{2-[(1H-Benzoimidazole-2-carbonyl)-amino]-3-methylbutyrylamino}-5-fluoro-4-oxo-pentanoic acid] | < 200 |
